What was measured:
Format in all cases: in vivo
[1] = tested on: Ipomea hederaceae (IPOHE); assay: Post-emergence biological efficacy, glasshouse pot test; conditions: Ipomoea hederacea, 312 h
Summary of the method: (§1)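 Plants were sown in standard soil and grown 8 days in a glasshouse (24/16° C. day/night, 14 hours light, 65% humidity), then sprayed post-emergence at 1000 or 250 g/ha from acetone/water (50:50) with 0.5% Tween 20. Damage was scored visually after 13 days (0 = none, 100 = total).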

Solanum nigrum (SOLNI) [2] = assay: as above; conditions: 312 h
Summary of the method: as §1

[3] = tested on: Alopecurus myosuroides (ALOMY); assay: as above; conditions: 312 h
Summary of the method: as §1

[4] = tested on: Amaranthus retoflexus (AMARE); assay: as above; conditions: Amaranthus retroflexus, 312 h
Summary of the method: as §1

Setaria faberi (SETFA) [5] = assay: as above; conditions: 312 h
Summary of the method: as §1

[6] = tested on: Echinochloa crus-galli (ECHCG); assay: as above; conditions: 312 h
Summary of the method: as §1

[7] = tested on: Ipomea hederaceae (IPOHE); assay: Pre-emergence biological efficacy, glasshouse pot test; conditions: Ipomoea hederacea, 312 h
Summary of the method: (§2)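 One day after seeds were sown in pots, compound was sprayed at 1000 or 250 g/ha. Plants were kept at 24/16 °C with 14 h light and 65% humidity and watered twice daily; damage was graded at day 13 (0 none, 100 total).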

Solanum nigrum (SOLNI) [8] = assay: as above; conditions: 312 h
Summary of the method: as §2

[9] = tested on: Alopecurus myosuroides (ALOMY); assay: as above; conditions: 312 h
Summary of the method: as §2

[10] = tested on: Amaranthus retoflexus (AMARE); assay: as above; conditions: Amaranthus retroflexus, 312 h
Summary of the method: as §2

Setaria faberi (SETFA) [11] = assay: as above; conditions: 312 h
Summary of the method: as §2

[12] = tested on: Echinochloa crus-galli (ECHCG); assay: as above; conditions: 312 h
Summary of the method: as §2

[13] = post-emergence, 1,000 g/ha, evaluated after 13 days (100=total damage; 0=no damage), read-out: Percentage damage caused to weed species, IPOHE
[14] = post-emergence, 1,000 g/ha, evaluated after 13 days (100=total damage; 0=no damage), read-out: Percentage damage caused to weed species, SOLNI
[15] = post-emergence, 1,000 g/ha, evaluated after 13 days (100=total damage; 0=no damage), read-out: Percentage damage caused to weed species, ALOMY
[16] = post-emergence, 1,000 g/ha, evaluated after 13 days (100=total damage; 0=no damage), read-out: Percentage damage caused to weed species, AMARE
[17] = post-emergence, 1,000 g/ha, evaluated after 13 days (100=total damage; 0=no damage), read-out: Percentage damage caused to weed species, SETFA
[18] = post-emergence, 1,000 g/ha, evaluated after 13 days (100=total damage; 0=no damage), read-out: Percentage damage caused to weed species, ECHCG
[19] = pre-emergence, 1,000 g/ha, evaluated after 13 days (100=total damage; 0=no damage), read-out: Percentage damage IPOHE
[20] = pre-emergence, 1,000 g/ha, evaluated after 13 days (100=total damage; 0=no damage), read-out: Percentage damage SOLNI
[21] = pre-emergence, 1,000 g/ha, evaluated after 13 days (100=total damage; 0=no damage), read-out: Percentage damage ALOMY
[22] = pre-emergence, 1,000 g/ha, evaluated after 13 days (100=total damage; 0=no damage), read-out: Percentage damage AMARE
[23] = pre-emergence, 1,000 g/ha, evaluated after 13 days (100=total damage; 0=no damage), read-out: Percentage damage SETFA
[24] = pre-emergence, 1,000 g/ha, evaluated after 13 days (100=total damage; 0=no damage), read-out: Percentage damage ECHCG
[25] = Rate 1,000 g/ha, post-emergence spray, evaluated after 13 days (100=total damage to plant; 0=no damage to plant), read-out: Percentage damage caused to weed species, post-emergence, IPOHE
[26] = Rate 1,000 g/ha, post-emergence spray, evaluated after 13 days (100=total damage to plant; 0=no damage to plant), read-out: Percentage damage caused to weed species, post-emergence, SOLNI
[27] = Rate 1,000 g/ha, post-emergence spray, evaluated after 13 days (100=total damage to plant; 0=no damage to plant), read-out: Percentage damage caused to weed species, post-emergence, ALOMY
[28] = Rate 1,000 g/ha, post-emergence spray, evaluated after 13 days (100=total damage to plant; 0=no damage to plant), read-out: Percentage damage caused to weed species, post-emergence, AMARE
[29] = Rate 1,000 g/ha, post-emergence spray, evaluated after 13 days (100=total damage to plant; 0=no damage to plant), read-out: Percentage damage caused to weed species, post-emergence, SETFA
[30] = Rate 1,000 g/ha, post-emergence spray, evaluated after 13 days (100=total damage to plant; 0=no damage to plant), read-out: Percentage damage caused to weed species, post-emergence, ECHCG
[31] = pre-emergence, rate 1,000 g/ha, evaluated after 13 days (100=total damage to plant; 0=no damage), read-out: Percentage damage caused to weed species, IPOHE
[32] = pre-emergence, rate 1,000 g/ha, evaluated after 13 days (100=total damage to plant; 0=no damage), read-out: Percentage damage caused to weed species, SOLNI
[33] = pre-emergence, rate 1,000 g/ha, evaluated after 13 days (100=total damage to plant; 0=no damage), read-out: Percentage damage caused to weed species, ALOMY
[34] = pre-emergence, rate 1,000 g/ha, evaluated after 13 days (100=total damage to plant; 0=no damage), read-out: Percentage damage caused to weed species, AMARE
[35] = pre-emergence, rate 1,000 g/ha, evaluated after 13 days (100=total damage to plant; 0=no damage), read-out: Percentage damage caused to weed species, SETFA
[36] = pre-emergence, rate 1,000 g/ha, evaluated after 13 days (100=total damage to plant; 0=no damage), read-out: Percentage damage caused to weed species, ECHCG

SMILES | pest or weed control at 1000 g/ha [1, 13] | pest or weed control at 1000 g/ha (Solanum nigrum (SOLNI) [2]; [14]) | pest or weed control at 1000 g/ha [3, 15] | pest or weed control at 1000 g/ha [4, 16] | pest or weed control at 1000 g/ha (Setaria faberi (SETFA) [5]; [17]) | pest or weed control at 1000 g/ha [6, 18] | pest or weed control at 1000 g/ha [7, 19] | pest or weed control at 1000 g/ha (Solanum nigrum (SOLNI) [8]; [20]) | pest or weed control at 1000 g/ha [9, 21] | pest or weed control at 1000 g/ha [10, 22] | pest or weed control at 1000 g/ha (Setaria faberi (SETFA) [11]; [23]) | pest or weed control at 1000 g/ha [12, 24] | pest or weed control at 1000 g/ha [1, 25] | pest or weed control at 1000 g/ha (Solanum nigrum (SOLNI) [2]; [26]) | pest or weed control at 1000 g/ha [3, 27] | pest or weed control at 1000 g/ha [4, 28] | pest or weed control at 1000 g/ha (Setaria faberi (SETFA) [5]; [29]) | pest or weed control at 1000 g/ha [6, 30] | pest or weed control at 1000 g/ha [7, 31] | pest or weed control at 1000 g/ha (Solanum nigrum (SOLNI) [8]; [32]) | further results
COC(=O)c1nc(C2CC2)nc(N[C@@H](CO)c2ccccc2)c1Cl [4-203 (R), 5-Chloro-2-cyclopropyl-4-[(1R)-2-hydroxy-1-phenyl-ethylamino]-6-methoxycarbonyl-pyrimidine] | 50% | 80% | 20% | 100% | 40% | 30% | 100% | 80% | 20% | 90% | 30% | 20% |  |  |  |  |  |  |  |  | 
COC(=O)c1nc(C2CC2)nc(NC(Cc2c[nH]c3ccccc23)C(=O)OC)c1Cl (stereo not drawn) [Compound 4-290, 5-Chloro-2-cyclopropyl-4-(2-indol-3-yl-1-methoxycarbonyl-ethylamino)-6-methoxycarbonyl-pyrimidine] | 70% | 80% | 30% | 100% | 50% | 30% | 90% | 80% | 20% | 80% | 30% | 40% |  |  |  |  |  |  |  |  | 
COC(=O)c1nc(C2CC2)nc(NCC2CCCO2)c1Cl (stereo not drawn) [Compound 4-53, 5-Chloro-2-cyclopropyl-6-methoxy carbonyl-4-(tetrahydrofuran-2-ylmethylamino)-pyrimidine] | 100% | 90% | 20% | 100% | 40% | 30% | 60% | 40% | 10% | 60% | 0% | 0% |  |  |  |  |  |  |  |  | 
COC(=O)c1nc(C2CC2)nc(N(C)CC2OCCO2)c1Cl [Compound 5-54, 5-Chloro-2-cyclopropyl-4-[N-(1,3-dioxolan-2-yl)methyl-N-methyl-amino]-6-methoxycarbonyl-pyrimidine] |  |  |  |  |  |  |  |  |  |  |  |  | 60% | 30% | 0% | 80% | 30% | 0% | 30% | 0% | pest or weed control at 1000 g/ha [9, 33]: 0%; pest or weed control at 1000 g/ha [10, 34]: 50%; pest or weed control at 1000 g/ha (Setaria faberi (SETFA) [11]; [35]): 0%; pest or weed control at 1000 g/ha [12, 36]: 0%
COC(=O)c1nc(Cl)nc(NC2CC2)c1Cl [Compound 207-30, 4-Cyclopropylamino-2,5-dichloro-6-methoxycarbonyl-pyrimidine] |  |  |  |  |  |  |  |  |  |  |  |  | 20% | 10% | 10% | 0% | 0% | 0% | 0% | 0% | pest or weed control at 1000 g/ha [9, 33]: 0%; pest or weed control at 1000 g/ha [10, 34]: 0%; pest or weed control at 1000 g/ha (Setaria faberi (SETFA) [11]; [35]): 0%; pest or weed control at 1000 g/ha [12, 36]: 0%

— patent US20110086759A1, “CHEMICAL COMPOUNDS” (SYNGENTA CROP PROTECTION, INC., priority 2007, published 2011)
